In brackets after ≈: the same amount, converted by molar mass.
Assays:
Format in all cases: functional
Settings in all cases: time 16-20 hrs
Staphylococcus aureus = assay: Antibacterial activity against Staphylococcus aureus ATCC 25923 incubated for 16 to 20 hrs by broth microdilution method
Escherichia coli = assay: Antibacterial activity against Escherichia coli ATCC 25922 incubated for 16 to 20 hrs by broth microdilution method
Cronobacter sakazakii = assay: Antibacterial activity against Cronobacter sakazakii ATCC 29544 incubated for 16 to 20 hrs by broth microdilution method
Klebsiella pneumoniae = assay: Antibacterial activity against Klebsiella pneumoniae ATCC 13883 incubated for 16 to 20 hrs by broth microdilution method

| SMILES | MIC (Staphylococcus aureus) [µg/mL] | MIC (Escherichia coli) [µg/mL] | MIC (Cronobacter sakazakii) [µg/mL] | MIC (Klebsiella pneumoniae) [µg/mL] |
| --- | --- | --- | --- | --- |
| CC[C@H]1OC(=O)C[C@@H](O)[C@H](C)[C@@H](O[C@@H]2O[C@H](C)[C@@H](O)[C@H](N(C)C)[C@H]2O)[C@@H](CCN(Cc2ccc(C(F)(F)F)cc2)Cc2cn(-c3cnc4ccccc4c3)nn2)C[C@@H](C)C(=O)/C=C/C(C)=C/[C@@H]1CN(CC)CC | 1 (≈ 0.98 µM) | 4 (≈ 3.92 µM) | 16 (≈ 15.7 µM) | 8 (≈ 7.84 µM) |
| CC[C@H]1OC(=O)C[C@@H](O)[C@H](C)[C@@H](O[C@@H]2O[C@H](C)[C@@H](O)[C@H](N(C)C)[C@H]2O)[C@@H](CCN(Cc2ccc(OC)cc2)Cc2cn(-c3cnc4ccccc4c3)nn2)C[C@@H](C)C(=O)/C=C/C(C)=C/[C@@H]1CN1CC(C)CC(C)C1 (stereo not given in full) | 2 (≈ 1.96 µM) | 16 (≈ 15.7 µM) | 32 (≈ 31.3 µM) | 16 (≈ 15.7 µM) |
| CC[C@H]1OC(=O)C[C@@H](O)[C@H](C)[C@@H](O[C@@H]2O[C@H](C)[C@@H](O)[C@H](N(C)C)[C@H]2O)[C@@H](CCN(C)Cc2cn(-c3cnc4ccccc4c3)nn2)C[C@@H](C)C(=O)/C=C/C(C)=C/[C@@H]1CI | 2 (≈ 2.15 µM) | 16 (≈ 17.2 µM) | 32 (≈ 34.4 µM) | 32 (≈ 34.4 µM) |
| CCCCN(CCCC)C[C@H]1/C=C(C)/C=C/C(=O)[C@H](C)C[C@H](CCN(Cc2ccc(Br)cc2)Cc2cn(-c3cnc4ccccc4c3)nn2)[C@H](O[C@@H]2O[C@H](C)[C@@H](O)[C@H](N(C)C)[C@H]2O)[C@@H](C)[C@H](O)CC(=O)O[C@@H]1CC | 1 (≈ 0.92 µM) | 8 (≈ 7.36 µM) | 16 (≈ 14.7 µM) | 16 (≈ 14.7 µM) |
| CC[C@H]1OC(=O)C[C@@H](O)[C@H](C)[C@@H](O[C@@H]2O[C@H](C)[C@@H](O)[C@H](N(C)C)[C@H]2O)[C@@H](CCN(Cc2ccc(Br)cc2)Cc2cn(-c3cnc4ccccc4c3)nn2)C[C@@H](C)C(=O)/C=C/C(C)=C/[C@@H]1CI | 4 (≈ 3.68 µM) | 32 (≈ 29.5 µM) | 16 (≈ 14.7 µM) | 32 (≈ 29.5 µM) |
| CC[C@H]1OC(=O)C[C@@H](O)[C@H](C)[C@@H](O[C@@H]2O[C@H](C)[C@@H](O)[C@H](N(C)C)[C@H]2O)[C@@H](CCN(Cc2ccc(N(C)C)cc2)Cc2cn(-c3cnc4ccccc4c3)nn2)C[C@@H](C)C(=O)/C=C/C(C)=C/[C@@H]1CN1CCCCC1 | 0.5 (≈ 0.496 µM) | 4 (≈ 3.97 µM) | 8 (≈ 7.94 µM) | 8 (≈ 7.94 µM) |
| CC[C@H]1OC(=O)C[C@@H](O)[C@H](C)[C@@H](O[C@@H]2O[C@H](C)[C@@H](O)[C@H](N(C)C)[C@H]2O)[C@@H](CCN(Cc2cn(-c3cnc4ccccc4c3)nn2)Cc2ccc(CO)o2)C[C@@H](C)C(=O)/C=C/C(C)=C/[C@@H]1CO | 0.5 (≈ 0.545 µM) | 32 (≈ 34.9 µM) | 32 (≈ 34.9 µM) | 32 (≈ 34.9 µM) |
| CC[C@H]1OC(=O)C[C@@H](O)[C@H](C)[C@@H](O[C@@H]2O[C@H](C)[C@@H](O)[C@H](N(C)C)[C@H]2O)[C@@H](CCN(Cc2ccc(C(F)(F)F)cc2)Cc2cn(-c3cnc4ccccc4c3)nn2)C[C@@H](C)C(=O)/C=C/C(C)=C/[C@@H]1CN1CC(C)CC(C)C1 (stereo not given in full) | 4 (≈ 3.77 µM) | 32 (≈ 30.2 µM) | 16 (≈ 15.1 µM) | 16 (≈ 15.1 µM) |
| CC[C@H]1OC(=O)C[C@@H](O)[C@H](C)[C@@H](O[C@@H]2O[C@H](C)[C@@H](O)[C@H](N(C)C)[C@H]2O)[C@@H](CCN(Cc2ccc(C(F)(F)F)cc2)Cc2cn(-c3cnc4ccccc4c3)nn2)C[C@@H](C)C(=O)/C=C/C(C)=C/[C@@H]1CN1CCC(O)CC1 | 2 (≈ 1.91 µM) | 16 (≈ 15.3 µM) | 32 (≈ 30.5 µM) | 32 (≈ 30.5 µM) |
| CC[C@H]1OC(=O)C[C@@H](O)[C@H](C)[C@@H](O[C@@H]2O[C@H](C)[C@@H](O)[C@H](N(C)C)[C@H]2O)[C@@H](CCN(C)Cc2cn(-c3cnc4ccccc4c3)nn2)C[C@@H](C)C(=O)/C=C/C(C)=C/[C@@H]1CN1CCC(O)CC1 | 8 (≈ 8.85 µM) | 16 (≈ 17.7 µM) | 32 (≈ 35.4 µM) | 16 (≈ 17.7 µM) |

Further lines, results first:

| MIC (Staphylococcus aureus) [µg/mL] | MIC (Escherichia coli) [µg/mL] | MIC (Cronobacter sakazakii) [µg/mL] | MIC (Klebsiella pneumoniae) [µg/mL] | SMILES |
| --- | --- | --- | --- | --- |
| 0.125 (≈ 0.128 µM) | 8 (≈ 8.2 µM) | 32 (≈ 32.8 µM) | 32 (≈ 32.8 µM) | CC[C@H]1OC(=O)C[C@@H](O)[C@H](C)[C@@H](O[C@@H]2O[C@H](C)[C@@H](O)[C@H](N(C)C)[C@H]2O)[C@@H](CCN(Cc2ccc(Br)cc2)Cc2cn(-c3cnc4ccccc4c3)nn2)C[C@@H](C)C(=O)/C=C/C(C)=C/[C@@H]1CO |
| 0.5 (≈ 0.549 µM) | 16 (≈ 17.6 µM) | 16 (≈ 17.6 µM) | 16 (≈ 17.6 µM) | CC[C@H]1OC(=O)C[C@@H](O)[C@H](C)[C@@H](O[C@@H]2O[C@H](C)[C@@H](O)[C@H](N(C)C)[C@H]2O)[C@@H](CCN(Cc2ccc(C)cc2)Cc2cn(-c3cnc4ccccc4c3)nn2)C[C@@H](C)C(=O)/C=C/C(C)=C/[C@@H]1CO |
| 0.25 (≈ 0.276 µM) | 4 (≈ 4.42 µM) | 8 (≈ 8.85 µM) | 4 (≈ 4.42 µM) | CCCN(CCC)C[C@H]1/C=C(C)/C=C/C(=O)[C@H](C)C[C@H](CCN(C)Cc2cn(-c3cnc4ccccc4c3)nn2)[C@H](O[C@@H]2O[C@H](C)[C@@H](O)[C@H](N(C)C)[C@H]2O)[C@@H](C)[C@H](O)CC(=O)O[C@@H]1CC |
| 0.5 (≈ 0.536 µM) | 8 (≈ 8.58 µM) | 16 (≈ 17.2 µM) | 16 (≈ 17.2 µM) | CCCCN(CCCC)C[C@H]1/C=C(C)/C=C/C(=O)[C@H](C)C[C@H](CCN(C)Cc2cn(-c3cnc4ccccc4c3)nn2)[C@H](O[C@@H]2O[C@H](C)[C@@H](O)[C@H](N(C)C)[C@H]2O)[C@@H](C)[C@H](O)CC(=O)O[C@@H]1CC |
| 0.25 (≈ 0.265 µM) | 32 (≈ 34 µM) | 32 (≈ 34 µM) | 32 (≈ 34 µM) | CC[C@H]1OC(=O)C[C@@H](O)[C@H](C)[C@@H](O[C@@H]2O[C@H](C)[C@@H](O)[C@H](N(C)C)[C@H]2O)[C@@H](CCN(Cc2ccc([N+](=O)[O-])cc2)Cc2cn(-c3cnc4ccccc4c3)nn2)C[C@@H](C)C(=O)/C=C/C(C)=C/[C@@H]1CO |
| 0.5 (≈ 0.53 µM) | 16 (≈ 17 µM) | 16 (≈ 17 µM) | 16 (≈ 17 µM) | CC[C@H]1OC(=O)C[C@@H](O)[C@H](C)[C@@H](O[C@@H]2O[C@H](C)[C@@H](O)[C@H](N(C)C)[C@H]2O)[C@@H](CCN(Cc2ccc(O)c(OC)c2)Cc2cn(-c3cnc4ccccc4c3)nn2)C[C@@H](C)C(=O)/C=C/C(C)=C/[C@@H]1CO |
| 0.25 (≈ 0.266 µM) | 8 (≈ 8.51 µM) | 16 (≈ 17 µM) | 16 (≈ 17 µM) | CC[C@H]1OC(=O)C[C@@H](O)[C@H](C)[C@@H](O[C@@H]2O[C@H](C)[C@@H](O)[C@H](N(C)C)[C@H]2O)[C@@H](CCN(Cc2ccc(N(C)C)cc2)Cc2cn(-c3cnc4ccccc4c3)nn2)C[C@@H](C)C(=O)/C=C/C(C)=C/[C@@H]1CO |
| 0.5 (≈ 0.506 µM) | 16 (≈ 16.2 µM) | 32 (≈ 32.4 µM) | 32 (≈ 32.4 µM) | CC[C@H]1OC(=O)C[C@@H](O)[C@H](C)[C@@H](O[C@@H]2O[C@H](C)[C@@H](O)[C@H](N(C)C)[C@H]2O)[C@@H](CCN(Cc2cn(-c3cnc4ccccc4c3)nn2)Cc2c(OC)cc(OC)cc2OC)C[C@@H](C)C(=O)/C=C/C(C)=C/[C@@H]1CO |
| 0.25 (≈ 0.277 µM) | 16 (≈ 17.7 µM) | 32 (≈ 35.4 µM) | 16 (≈ 17.7 µM) | CC[C@H]1OC(=O)C[C@@H](O)[C@H](C)[C@@H](O[C@@H]2O[C@H](C)[C@@H](O)[C@H](N(C)C)[C@H]2O)[C@@H](CCN(Cc2ccsc2)Cc2cn(-c3cnc4ccccc4c3)nn2)C[C@@H](C)C(=O)/C=C/C(C)=C/[C@@H]1CO |
| 0.125 (≈ 0.138 µM) | 16 (≈ 17.7 µM) | 32 (≈ 35.4 µM) | 16 (≈ 17.7 µM) | CC[C@H]1OC(=O)C[C@@H](O)[C@H](C)[C@@H](O[C@@H]2O[C@H](C)[C@@H](O)[C@H](N(C)C)[C@H]2O)[C@@H](CCN(Cc2cn(-c3cnc4ccccc4c3)nn2)Cc2cccs2)C[C@@H](C)C(=O)/C=C/C(C)=C/[C@@H]1CO |
